Measured values as given in US8946124B2, “Substituted 3-(biphenyl-3-yl)-8,8-difluoro-4-hydroxy-1-azaspiro[4.5]dec-3-en-2-ones for therapy and halogen-substituted spirocyclic ketoenols” (Bayer Intellectual Property GmbH, priority 2011, dated 2015).

Tests used:
human ACC1 = type: biochemical; conditions: pairwise, same substance dilution series
[1] = Octanol/water distribution coefficient (log P/D), isocratic HPLC method; type: physicochemical; conditions: pH 7.4; mean (range, n); read-out: logP/D pH 7.4
Text: The distribution coefficient octanol/water P or D is a key parameter for estimating membrane penetration and permeability. It is defined as the ratio of the equilibrium concentrations of a substance in the two-phase system octanol/water.
[formula] P=partition D=distribution c(octanol)=concentration of the substance in the octanol phase c(water)=concentration of the substance in the aqueous phase
It is usually stated in form of the decadic logarithm (log P or log D).
log P describes the distribution behavior of a substance exclusively present in its neutral form. logD describes the distribution behavior of a substance at a certain pH; depending on the ionisation constant pKa of the substance, some of the substance may be present in ionic form, and some in neutral form.
The log P/D of the active compounds was determined using an isocratic HPLC method (HPLC=high performance liquid chromatography) (literature: OECD Guideline for Testing of Chemicals No. 117). The method is based on the correlation of the HPLC retention time of the test substance to that of reference substances with known distribution coefficients.
The test substance was employed as a 10 mM solution in DMSO (DMSO=dimethyl sulfoxide). 10 μl of this solution were made up to 100 μl with a methanol/water mixture in a ratio of 7+3.
The nine reference substances were dissolved individually in methanol. 100 μl each of the stock solutions were added to an HPLC vial and mixed with 300 μl of water.
A formamide solution was used to determine the hold-up time. To this end, 7 mg of formamide were dissolved in 10 ml of methanol. 100 μl of this stock solution were mixed with 500 μl of methanol and 200 μl of water.
All solutions were chromatographed using a flow rate of 1.00 ml/min.
Injection Protocol: formamide, references, test substance 1, test substance 2, . . . , formamide, references.
Evaluation of the retention times was carried out in a diode array detector (DAD) at 200-400 nm. Via the molecular mass, the identity of the test substance was checked using the downstream mass spectrometer.
The HPLC run was evaluated using the Waters software Masslynx 4.1.
The log P/D values were calculated using the software “POW Determination” (proprietary development).

Myzus persicae = test: Myzus test (MYZUPE spray treatment); type: in vivo; conditions: 500 g/ha, after 6 days
Phaedon cochleariae = test: Phaedon test (PHAECO spray treatment); conditions: 500 g/ha, after 7 days
Tetranychus urticae = test: Tetranychus test, OP-resistant (TETRUR spray treatment); type: in vivo; conditions: after 6 days
Experimental: (§1) Solvents: 78.0 parts by weight of acetone
After 6 days, the effect in % is determined.
Tetranychus Test, OP-Resistant (TETRUR Spray Treatment)

Spodoptera frugiperda = Spodoptera frugiperda test (SPODFR spray treatment); type: in vivo; conditions: 500 g/ha, after 7 days
Text: as §1

human plasma protein = test: Plasma protein binding by equilibrium dialysis; type: in vitro ADME
Experimental: (§2) The binding of test substances to plasma proteins is determined by equilibrium dialysis by means of the Ht-dialysis apparatus (96-well) made of Teflon and a semipermeable membrane (regenerated cellulose, MWCO 12-14K). This separates 150 μl each of a plasma side and a buffer side (50 mM phosphate buffer). The test substance is added in 2 concentrations (usually 3 and 0.3 μM) to the plasma side and binds to plasma proteins. The unbound fraction of the test substance passes through the membrane and is distributed on either side until equilibrium is established (after approx. 6-8 h at 37° C.). The substance concentration on the buffer side and the plasma side is determined by LC-MS analysis. For this, both sides are brought by dilution with buffer or plasma to the same matrix (10% plasma) and then precipitated with methanol. The free (unbound) fraction (fu) is calculated from the quotient of the buffer and plasma concentration. Stability tests and recovery tests are run concurrently as controls. In addition, the substance in buffer is dialysed against buffer, to check the nonspecific binding to apparatus and membrane and establishment of equilibrium. Because during incubation the osmotic pressure of the plasma proteins leads to dilution of the plasma (volume shift), this possible error is determined by weighing blank plasma samples and is included in the calculation of fu. Establishment of equilibrium and plasma stability should have a value not lower than 80% and the recovery should be at least 30%. A free fraction of <1% is regarded as high, between 1 and 10% as moderate and >10% as low plasma protein binding.

mouse plasma protein = test: Plasma protein binding by equilibrium dialysis; type: in vitro ADME
Experimental: as §2

plasma proteins of rat = test: Plasma protein binding by equilibrium dialysis; type: in vitro ADME
Experimental: as §2

Meloidogyne incognita = Meloidogyne incognita test (MELGIN); type: in vivo; conditions: 20 ppm, after 14 days
Experimental: Solvent: 125 parts by weight of acetone
Containers are filled with sand, solution of active compound, Meloidogyne incognita egg/larvae suspension and lettuce seeds. The lettuce seeds germinate and the plants develop. On the roots, galls are formed. After 14 days, the nematicidal effect in % is determined by the formation of galls. 100% means that no galls have been found; 0% means that the number of galls on the treated plants corresponds to the untreated control.

Lucilia cuprina = Lucilia cuprina test (LUCICU); type: in vivo; conditions: 100 ppm, after 2 days
Experimental: (§3) Solvent: dimethyl sulfoxide
To prepare an appropriate active compound formulation, 10 mg of active compound are mixed with 0.5 ml of dimethyl sulfoxide and the concentrate is diluted with water to the desired concentration. Vessels containing horse meat treated with the active compound preparation of the desired concentration are populated with about 20 Lucilia cuprina larvae.
After 2 days, the kill in % is determined.

Boophilus microplus = Boophilus microplus test (BOOPMI injection); type: in vivo; conditions: 20 μg/animal, after 7 days
Experimental: as §3
To prepare an appropriate active compound formulation, 10 mg of active compound are mixed with 0.5 ml of solvent and the concentrate is diluted with solvent to the desired concentration. The solution of active compound is injected into the abdomen (Boophilus microplus), and the animals are transferred into dishes and kept in a climatized room. The activity is assessed by […] of fertile eggs.
100% means that none of the ticks has laid any fertile eggs.

Row | Structure (SMILES) | chromatographic logD [1] | effect in % (aphids killed) (Myzus persicae) [%] | effect in % (beetle larvae killed) (Phaedon cochleariae) [%] | effect in % (spider mites killed) (Tetranychus urticae; 100 g/ha) [%] | effect in % (caterpillars killed) (Spodoptera frugiperda) [%] | also measured
1 | Cc1ccc(-c2ccc(Cl)c(F)c2)cc1C1=C(O)[C@]2(CC[C@H](C(F)(F)F)CC2)NC1=O [V.1-a, (5s,8s)-3-(4′-Chloro-3′-fluoro-4-methylbiphenyl-3-yl)-4-hydroxy-8-(trifluoromethyl)-1-azaspiro[4.5]dec-3-en-2-one] | 2.55 | – | – | – | – | Ratio of IC50s ACC2/ACC1 (respective measurement) (human ACC1): 8.6
2 | Cc1ccc(-c2ccc(Cl)c(F)c2)cc1C1=C(O)C2(CCCCC2)NC1=O [V.1-b, 3-(4′-Chloro-3′-fluoro-4-methylbiphenyl-3-yl)-4-hydroxy-1-azaspiro[4.5]dec-3-en-2-one] | 2.8 | – | – | – | – | –
3 | Cc1cc(C)c(C2=C(O)C3(CCC(F)(F)CC3)OC2=O)c(C)c1 [Example I-2-a-4] | – | 100 | 100 | – | – | –
4 | Cc1ccc(-c2ccc(Cl)cc2)cc1C1=C(O)[C@]2(CC[C@H](C(F)(F)F)CC2)NC1=O [V.2-a, (5s,8s)-3-(4′-Chloro-4-methylbiphenyl-3-yl)-4-hydroxy-8-(trifluoromethyl)-1-azaspiro[4.5]dec-3-en-2-one] | 2.23 | – | – | – | – | Ratio of IC50s ACC2/ACC1 (respective measurement) (human ACC1): 8.4
5 | Cc1cc(Cl)cc(C)c1C1=C(O)C2(CCC(F)(F)CC2)NC1=O [Example I-1-a-7] | – | 100 | 100 | 100 | – | –
6 | CCc1cc(C)cc(C)c1C1=C(O)C2(CCC(F)(F)CC2)NC1=O [Example I-1-a-11] | – | – | – | 100 | – | –
7 | Cc1ccc(-c2ccc(F)cc2)c(C)c1C1=C(O)C2(CC=C(F)CC2)NC1=O (centres unmarked) [Example I-1-a-12] | – | 100 | 100 | – | 100 | effect in % (spider mites killed) (Tetranychus urticae; 500 g/ha): 100%
8 | Cc1ccc(-c2ccc(Cl)cc2)cc1C1=C(O)C2(CCC(F)(F)CC2)NC1=O [Example 1-2, 3-(4′-Chloro-4-methylbiphenyl-3-yl)-8,8-difluoro-4-hydroxy-1-azaspiro[4.5]dec-3-en-2-one] | 1.73 | 100 | 100 | 100 | 100 | fu [%] (human) (human plasma protein): 0.42%; fu [%] (mouse) (mouse plasma protein): 3.49%
9 | Cc1ccc(-c2ccc(Cl)cc2)cc1C1=C(O)C2(CCC(F)(F)CC2)OC1=O [Example I-2-a-3] | – | 90 | 100 | – | 100 | –
10 | Cc1ccc(-c2ccc(F)cc2)c(C)c1C1=C(O)C2(CCC(F)(F)CC2)OC1=O [Example I-2-a-2] | – | 100 | 100 | – | 100 | effect in % (spider mites killed) (Tetranychus urticae; 500 g/ha): 100%
11 | Cc1cc(Br)cc(C)c1C1=C(O)C2(CCC(F)(F)CC2)NC1=O [Example I-1-a-5] | – | 100 | 100 | 100 | – | –
12 | Cc1ccc(-c2ccc(Cl)cc2)cc1C1=C(O)C2(CCCCC2)NC1=O [V.2-b, 3-(4′-Chloro-4-methylbiphenyl-3-yl)-4-hydroxy-1-azaspiro[4.5]dec-3-en-2-one, reference compound] | 2.77 | – | – | – | – | fu [%] (human) (human plasma protein): 0.36%; fu [%] (mouse) (mouse plasma protein): 2.81%; fu [%] (rat) (plasma proteins of rat): 0.71%
13 | O=C1NC2(CCC(F)(F)CC2)C(O)=C1c1cc(-c2ccc(Cl)cc2)ccc1Cl [Example 1-4, 3-(4,4′-Dichlorobiphenyl-3-yl)-8,8-difluoro-4-hydroxy-1-azaspiro[4.5]dec-3-en-2-one] | – | – | – | – | – | Ratio of IC50s ACC2/ACC1 (respective measurement) (human ACC1): 34.0
14 | Cc1cc(Cl)cc(C)c1C1=C(O)C2(CC=C(F)CC2)NC1=O (centres unmarked) [Example I-1-a-13] | – | 100 | 100 | 90 | – | –
15 | Cc1ccc(-c2ccc(Cl)cc2)c(C)c1C1=C(O)C2(CCC(F)(F)CC2)NC1=O [Example 1-5, 3-(4′-Chloro-2,4-dimethylbiphenyl-3-yl)-8,8-difluoro-4-hydroxy-1-azaspiro[4.5]dec-3-en-2-one] | – | 100 | – | 90 | – | nematicidal effect in % (formation of galls) (Meloidogyne incognita): 100%
16 | Cc1ccc(-c2ccc(F)cc2)c(C)c1C1=C(O)C2(CCC(F)(F)CC2)NC1=O [Example I-1-a-2] | – | 100 | 100 | – | 100 | kill in % (Lucilia cuprina): 100%; effect in % (fertile eggs) (Boophilus microplus): 80%; effect in % (spider mites killed) (Tetranychus urticae; 500 g/ha): 100%; nematicidal effect in % (formation of galls) (Meloidogyne incognita): 100%
